Laboratory results taken from publication PMC8402609, “Guiding the Immune Response to a Conserved Epitope in MSP2, an Intrinsically Disordered Malaria Vaccine Candidate” (Vaccines, 2021).
pKd: −log10 of the molar value. Where two headings read alike, the source gives them in different places. Where a SMILES comes first, the peptide text is derived from it. Bridges are numbered along the chain shown (N, C = ends).

Assays:
[1] = biological target: 4D11 IgG; assay: SPR competition binding assay, mAb 4D11; set-up: species or system mouse; conditions: read-out: Kd against 4D11 IgG
Procedure: (§1) Affinities for peptide epitopes and dimer peptides to 4D11 and 9H4 IgG were measured by surface plasmon resonance (SPR) (Biacore T200, GE Healthcare, Parramatta, Australia) using a competition assay method developed previously. First, 3D7 MSP2 was immobilised on a CM5 chip. To determine binding, eight three-fold dilutions of peptide, from 10 µM stock were added with 50 nM 4D11/9H4 IgG to compete with the immobilised antigen. A standard curve was established by flowing eight two-fold dilutions of 4D11 or 9H4 IgG from a 100 nM stock solution.
Following the MD simulations, each peptide was synthesised by standard Fmoc synthesis. Orthogonal protection of cysteines was used to ensure that the desired disulfide bond was formed, leaving a single free cysteine for conjugation to an appropriate carrier for immunisation. […] Consequently, disulfide bond formation and cyclisation coupling were performed in solution. To determine if the additions incorporated into the dimer sequence hindered binding to 4D11, SPR was used to measure their binding affinity to the mAb (Table 2). […] For immunisations, the commonly used carrier protein, keyhole limpet hemocyanin (KLH) was chosen. As conjugation to KLH required a free thiol, an additional cysteine residue was included in all of the peptides (Figure 2).

[2] = biological target: 9H4 IgG; assay: SPR competition binding assay, mAb 9H4; set-up: species or system mouse; conditions: SPR competition assay (Biacore T200); 3D7 MSP2 immobilised on CM5 chip; eight three-fold dilutions of peptide from 10 µM with 50 nM 9H4 IgG; alanine scan of 16-residue MSP2_207–222; read-out: Kd against 9H4 IgG
Procedure: as §1
In our previous work, the minimal epitope and key residues involved in 4D11 binding were defined as the 8-residue peptide 3D7-MSP2_215–222, with Lys216, Glu217 and Asn218 crucial for binding. To characterise the epitope of 9H4 and compare it with that of 4D11, the same alanine-scan peptides were used to probe 9H4 binding (Figure 1A,B). Affinities for 9H4 binding were measured by SPR, using a competition binding assay described previously.

[3] = SPR competition assay (Biacore T200), 3D7 MSP2 immobilised on CM5 chip, eight three-fold dilutions of peptide from 10 µM with 50 nM 4D11 IgG, alanine scan of 16-residue MSP2_207–222
[4] = SPR competition binding assay, peptides for KLH conjugation (Table 2), 3D7 MSP2 on CM5 chip, 50 nM 4D11 IgG

| SMILES | pKd [1, 3] | pKd [2] | pKd [1, 4] |
| --- | --- | --- | --- |
| CC(=O)N[C@@H](CO)C(=O)N[C@@H](CCC(N)=O)C(=O)N[C@@H](CCCCN)C(=O)N[C@@H](CCC(=O)O)C(=O)N[C@H]1CSSC[C@@H](C(=O)NCC(=O)N[C@@H](C)C(=O)N[C@@H](C)C(N)=O)NC(=O)[C@H](CC(N)=O)NC(=O)[C@H](CCC(=O)O)NC(=O)[C@H](CCCCN)NC(=O)[C@H](CC(N)=O)NC(=O)CNC(=O)[C@H](CC(=O)O)NC(=O)[C@H](C)NC1=O [Peptide T212A] (Ac-SQKECADGNKENCGAA-NH2; disulfide 5-13) | 6.30 | 5.32 | – |
| CC(=O)N[C@@H](CC(N)=O)C(=O)N[C@@H](CCCCN)C(=O)N[C@@H](CCC(=O)O)C(=O)N[C@@H](CC(N)=O)C(=O)N[C@H]1CSSC[C@@H](C(=O)NCC(=O)N[C@@H](C)C(=O)N[C@@H](C)C(=O)N[C@@H](CS)C(N)=O)NC(=O)[C@H](CC(N)=O)NC(=O)[C@H](CCC(=O)O)NC(=O)[C@H](CCCCN)NC(=O)[C@H](CC(N)=O)NC(=O)CNC(=O)CNC(=O)CNC(=O)[C@H](C)NC(=O)[C@H](C)NC(=O)CNC1=O [Peptide L3] (Ac-NKENCGAAGGGNKENCGAAC-NH2; disulfide 5-16) | – | – | 6.24 |
| CC(=O)N[C@@H](CO)C(=O)N[C@@H](CCC(N)=O)C(=O)N[C@@H](CCCCN)C(=O)N[C@@H](C)C(=O)N[C@H]1CSSC[C@@H](C(=O)NCC(=O)N[C@@H](C)C(=O)N[C@@H](C)C(N)=O)NC(=O)[C@H](CC(N)=O)NC(=O)[C@H](CCC(=O)O)NC(=O)[C@H](CCCCN)NC(=O)[C@H](CC(N)=O)NC(=O)CNC(=O)[C@H](CC(=O)O)NC(=O)[C@H]([C@@H](C)O)NC1=O [Peptide E210A] (Ac-SQKACTDGNKENCGAA-NH2; disulfide 5-13) | 6.30 | 5.85 | – |
| CC(=O)N[C@@H](CO)C(=O)N[C@@H](CCC(N)=O)C(=O)N[C@@H](CCCCN)C(=O)N[C@@H](CCC(=O)O)C(=O)N[C@H]1CSSC[C@@H](C(=O)NCC(=O)N[C@@H](C)C(=O)N[C@@H](C)C(N)=O)NC(=O)[C@H](CC(N)=O)NC(=O)[C@H](CCC(=O)O)NC(=O)[C@H](CCCCN)NC(=O)[C@H](C)NC(=O)CNC(=O)[C@H](CC(=O)O)NC(=O)[C@H]([C@@H](C)O)NC1=O [Peptide N215A] (Ac-SQKECTDGAKENCGAA-NH2; disulfide 5-13) | 6.30 | 7.00 | – |
| CC(=O)N[C@@H](CO)C(=O)N[C@@H](CCC(N)=O)C(=O)N[C@@H](CCCCN)C(=O)N[C@@H](CCC(=O)O)C(=O)N[C@H]1CSSC[C@@H](C(=O)NCC(=O)N[C@@H](C)C(=O)N[C@@H](C)C(N)=O)NC(=O)[C@H](CC(N)=O)NC(=O)[C@H](CCC(=O)O)NC(=O)[C@H](CCCCN)NC(=O)[C@H](CC(N)=O)NC(=O)CNC(=O)[C@H](C)NC(=O)[C@H]([C@@H](C)O)NC1=O [Peptide D213A] (Ac-SQKECTAGNKENCGAA-NH2; disulfide 5-13) | 6.30 | – | – |
| CC(=O)N[C@@H](CO)C(=O)N[C@@H](CCC(N)=O)C(=O)N[C@@H](CCCCN)C(=O)N[C@@H](CCC(=O)O)C(=O)N[C@H]1CSSC[C@@H](C(=O)N[C@@H](C)C(=O)N[C@@H](C)C(=O)N[C@@H](C)C(N)=O)NC(=O)[C@H](CC(N)=O)NC(=O)[C@H](CCC(=O)O)NC(=O)[C@H](CCCCN)NC(=O)[C@H](CC(N)=O)NC(=O)CNC(=O)[C@H](CC(=O)O)NC(=O)[C@H]([C@@H](C)O)NC1=O [Peptide G220A] (Ac-SQKECTDGNKENCAAA-NH2; disulfide 5-13) | 4.37 | 5.54 | – |
| CC(=O)N[C@@H](C)C(=O)N[C@@H](CCC(N)=O)C(=O)N[C@@H](CCCCN)C(=O)N[C@@H](CCC(=O)O)C(=O)N[C@H]1CSSC[C@@H](C(=O)NCC(=O)N[C@@H](C)C(=O)N[C@@H](C)C(N)=O)NC(=O)[C@H](CC(N)=O)NC(=O)[C@H](CCC(=O)O)NC(=O)[C@H](CCCCN)NC(=O)[C@H](CC(N)=O)NC(=O)CNC(=O)[C@H](CC(=O)O)NC(=O)[C@H]([C@@H](C)O)NC1=O [Peptide S207A] (Ac-AQKECTDGNKENCGAA-NH2; disulfide 5-13) | 6.30 | 5.54 | – |
| CC(=O)N[C@@H](CC(N)=O)C(=O)N[C@@H](CCCCN)C(=O)N[C@@H](CCC(=O)O)C(=O)N[C@@H](CC(N)=O)C(=O)N[C@H]1CSSC[C@@H](C(=O)NCC(=O)N[C@@H](C)C(=O)N[C@@H](C)C(=O)N[C@@H](CS)C(N)=O)NC(=O)[C@H](CC(N)=O)NC(=O)[C@H](CCC(=O)O)NC(=O)[C@H](CCCCN)NC(=O)[C@H](CC(N)=O)NC(=O)CNC(=O)CNC(=O)[C@H](C)NC(=O)[C@H](C)NC(=O)CNC1=O [Peptide L2] (Ac-NKENCGAAGGNKENCGAAC-NH2; disulfide 5-15) | – | – | 6.17 |
| C[C@@H]1NC(=O)CNC(=O)[C@@H]2CSSC[C@H](NC(=O)[C@H](CC(N)=O)NC(=O)[C@H](CCC(=O)O)NC(=O)[C@H](CCCCN)NC(=O)[C@H](CC(N)=O)NC(=O)CNC(=O)[C@H](CS)NC(=O)CNC(=O)[C@H](C)NC1=O)C(=O)NCC(=O)N[C@@H](C)C(=O)N[C@@H](C)C(=O)NCC(=O)NCC(=O)NCC(=O)N[C@@H](CC(N)=O)C(=O)N[C@@H](CCCCN)C(=O)N[C@@H](CCC(=O)O)C(=O)N[C@@H](CC(N)=O)C(=O)N2 [Peptide C3] (cyclo(AAGCGNKENCGAAGGGNKENCG); disulfide 10-21) | – | – | 5.98 |
| CC(=O)N[C@@H](CO)C(=O)N[C@@H](CCC(N)=O)C(=O)N[C@@H](CCCCN)C(=O)N[C@@H](CCC(=O)O)C(=O)N[C@H]1CSSC[C@@H](C(=O)NCC(=O)N[C@@H](C)C(=O)N[C@@H](C)C(N)=O)NC(=O)[C@H](CC(N)=O)NC(=O)[C@H](C)NC(=O)[C@H](CCCCN)NC(=O)[C@H](CC(N)=O)NC(=O)CNC(=O)[C@H](CC(=O)O)NC(=O)[C@H]([C@@H](C)O)NC1=O [Peptide E217A] (Ac-SQKECTDGNKANCGAA-NH2; disulfide 5-13) | 3.66 | 7.05 | – |
| CC(=O)N[C@@H](CO)C(=O)N[C@@H](CCC(N)=O)C(=O)N[C@@H](CCCCN)C(=O)N[C@@H](CCC(=O)O)C(=O)N[C@H]1CSSC[C@@H](C(=O)NCC(=O)N[C@@H](C)C(=O)N[C@@H](C)C(N)=O)NC(=O)[C@H](CC(N)=O)NC(=O)[C@H](CCC(=O)O)NC(=O)[C@H](CCCCN)NC(=O)[C@H](CC(N)=O)NC(=O)CNC(=O)[C@H](CC(=O)O)NC(=O)[C@H]([C@@H](C)O)NC1=O [3D7-MSP2_207–222 (WT)] (Ac-SQKECTDGNKENCGAA-NH2; disulfide 5-13) | 6.05 | 5.82 | – |
| CC(=O)N[C@@H](CO)C(=O)N[C@@H](CCC(N)=O)C(=O)N[C@@H](CCCCN)C(=O)N[C@@H](CCC(=O)O)C(=O)N[C@H]1CSSC[C@@H](C(=O)NCC(=O)N[C@@H](C)C(=O)N[C@@H](C)C(N)=O)NC(=O)[C@H](CC(N)=O)NC(=O)[C@H](CCC(=O)O)NC(=O)[C@H](C)NC(=O)[C@H](CC(N)=O)NC(=O)CNC(=O)[C@H](CC(=O)O)NC(=O)[C@H]([C@@H](C)O)NC1=O [Peptide K216A] (Ac-SQKECTDGNAENCGAA-NH2; disulfide 5-13) | 4.68 | 7.05 | – |
| C[C@@H]1NC(=O)CNC(=O)[C@@H]2CSSC[C@H](NC(=O)[C@H](CC(N)=O)NC(=O)[C@H](CCC(=O)O)NC(=O)[C@H](CCCCN)NC(=O)[C@H](CC(N)=O)NC(=O)CNC(=O)CNC(=O)[C@H](C)NC1=O)C(=O)NCC(=O)N[C@@H](C)C(=O)N[C@@H](C)C(=O)N[C@@H](CS)C(=O)NCC(=O)N[C@@H](CC(N)=O)C(=O)N[C@@H](CCCCN)C(=O)N[C@@H](CCC(=O)O)C(=O)N[C@@H](CC(N)=O)C(=O)N2 [Peptide C2] (cyclo(AACGNKENCGAAGGNKENCG); disulfide 9-19) | – | – | 6.17 |
